Data as given in patent US5641798A, “Bicyclic compounds and their use as excitatory amino acid receptor antagonists” (Eli Lilly and Company, priority 1995, dated 1997).
“And” between values parts separate entries of the source, which are not always exact repeats. Equal entries are not always repeated. Where two headings read alike, the source gives them in different places.

Experiments:
formalin model = conditions: mouse; cited from earlier work
NMDA receptor [1] = test: [3H]MK-801 binding to well washed rat cortical membranes; conditions: [3H]MK-801 2.5 nM, glutamate 0.001 μM and glycine 10 μM, 27° C., two hours, mean of three experiments
Description: The formula I compounds were also tested for their ability to inhibit NMDA receptor binding using [^3 H]MK-801 (New England Nuclear, Boston, Mass.). Rat brain cortices were extensively washed to remove endogenous glutamate and glycine. Cortices were homogenized in 20 volumes of ice-cold 0.32M sucrose and centrifuged at 1,000 xg for ten minutes. The supernatant was then centrifuged at 20,000 xg for 20 minutes. The resulting pellet was resuspended in 30 volumes of distilled water and centrifuged at 8,000 xg for 20 minutes. The resulting supernatant was centrifuged at 45,000 xg for 20 minutes and the pellet frozen in liquid nitrogen for at least 24 hours. On the day of the assay, the pellet was thawed at room temperature and resuspended in 30 volumes of ice-cold distilled water and centrifuged at 45,000 xg for 20 minutes. The final pellet was resuspended in 50 mM Tris (pH 7.4)at a concentration of 10 vol/gram wet weight of tissue.
The binding of [^3 H]MK-801 to well washed rat cortical membranes was conducted in the presence of added glutamate (0.001 μM) and glycine (10 μM). Antagonists were incubated with [^3 H]MK-801 (2.5 nM) and membrane aliquots (μg/ml protein)in a final volume of 1 ml at 27° C. for two hours. Nonspecific [^3 H]MK-801 binding was determined in the presence of 100 μM MK-801. Assays were terminated by filtering the samples over Whatman GF/B glass-fiber filters, presoaked in 0.05% polyethyleneimine, followed by a 10 ml ice cold saline wash.
These assays were performed in triplicate, and the mean values of three separate experiments were used to obtain the half maximal effective concentration. Final protein concentrations (0.5 mg/ml)for each assay were determined using the Lowry et al. (1951)method. Lowry, Rosebrough, Farr, and Randall, J. Biol. Chem., 193, 265-275 (1951). Analysis of the data was performed using a four-parameter logistic equation Graphpad Software San Diego, Calif.).

NMDA receptor [2] = test: Antagonism of NMDA-induced depolarization of rat cortical wedges; assay type: cell-based; conditions: for NMDA receptor antagonist activity: cortical wedge assay, Table II
Description: The depolarization of rat cortical wedges was used to test the selectivity and potency of the formula I compounds as NMDA antagonist using a technique similar to that described by Harrison and Simmonds. Harrison and Simmonds, Bri. J. Pharmacol., 84, 381-391 (1984). Generally, 4-ml aliguots of NMDA (40 μM)were superfused (2 ml/min)on the gray matter at intervals of 15 to 20 minutes until stable responses where obtained. The tissue was then exposed for 15 minutes to various concentrations of the formula I compounds before retesting the agonist. The IC50 values were calculated from linear regression of log dose-response curves, each point the mean of at least three observations on separate slices from more than one animal.
The cortical wedge assay distinguishes between agonist and antagonist activity.

NMDA receptor [3] = test: [3H]CGS19755 radioligand binding to Triton-X-treated synaptosomal membranes of rat forebrain; parameters: species or system rat (male Sprague-Dawley); conditions: [3H]CGS19755 10 nM, ice-bath 30 min, mean, standard error, n=3
Description: The formula I compounds were tested for their ability to inhibit NMDA receptor binding to rat membranes in a radioligand binding assay using [^3 H]CGS19755. For these radioligand binding assays, male Sprague-Dawley rats were used. Displacement of the specific binding [^3 H]CGS19755 (10 nM)to Triton-X-treated synaptosomal membranes of rat forebrain was used to determine NMDA receptor affinity. Non-specific binding was determined using 10 μM L-glutamate. Samples were incubated in an ice-bath for 30 minutes, and bound ligand was separated from the free ligand by rapid filtration through WHATMAN GF/B glass fiber filters. Murphy et al, British J. Pharmacol., 95, 932-938 (1988). The concentration of the formula I compound that inhibited 50% binding (IC50, mean standard error, n=3)was calculated by linear regression of displacement data transformed to the Hill equation as described by Bennett. Bennett, Neurotransmitter Receptor Binding, 57-90 (1978).

CNS ischemia = conditions: rabbits; cited from earlier work
[4] = test system: warm water tail withdrawal; conditions: rhesus monkeys; cited from earlier work
focal cerebral ischemia [5] = conditions: rats; cited from earlier work
focal cerebral ischemia [6] = conditions: cats; cited from earlier work

Compound: NC(CCCP(=O)(O)O)C(=O)O (racemic) [DL-AP5]
- analgesia in formalin model (formalin model): analgesic

Compound: O=C(O)CC1CC[C@H]2CN[C@H](C(=O)O)[C@@H]12 (stereo partly drawn) [Compound 13, (1SR,2SR,5RS,8SR)-3-Aza-8-(carboxymethyl)bicyclo[3.3.0]octane-2-carboxylicAcid and (1SR,2SR,5RS,8RS)-3-Aza-8-(carboxymethyl)bicyclo[3.3.0]octane-2-carboxylicAcid]
- IC50 (NMDA receptor [1]): 39 ± 8.7 µM
- IC50 (NMDA receptor [2]; 0.25 h): 52 ± 8 µM
- IC50 (NMDA receptor [3]): 1.19 ± 0.54 µM

Compound: O=C(O)[C@H]1NC[C@@H]2CCC(CCSc3nn[nH]n3)[C@@H]21 (stereo partly drawn) [Compound 22, (1SR,2SR,5RS,8SR)-3-Aza-8-(2-(1(2)H-tetrazole-5-thio)ethyl)bicyclo[3.3.0]octane-2-carboxylic Acid and (1SR,2SR,5RS,8RS)-3-Aza-8-(2-(1(2)H-tetrazole-5-thio)ethyl)bicyclo[3.3.0]octane-2-carboxylic Acid]
- IC50 (NMDA receptor [1]): > 100 µM
- IC50 (NMDA receptor [3]): 26.1 ± 6.13 µM

Compound: O=C(O)[C@H]1NC[C@@H]2CCC(Cc3nn[nH]n3)[C@@H]21 (stereo partly drawn) [Compound 12, (1SR,2SR,5RS,8SR)-3-Aza-8-((1(2)H-tetrazol-5-yl)methyl)bicyclo[3.3.0]octane-2-carboxylic Acid and (1SR,2SR,5RS,8RS)-3-Aza-8-((1(2)H-tetrazol-5-yl)methyl)bicyclo[3.3.0]octane-2-carboxylic Acid]
- IC50 (NMDA receptor [1]): 49.7 ± 14.2 µM
- IC50 (NMDA receptor [2]; 0.25 h): 9.5 ± 5 µM
- NMDA receptor antagonist activity (NMDA receptor [2]): NMDA receptor antagonists
- IC50 (NMDA receptor [3]): 0.73 µM and < 1 µM

Compound: O=C(O)[C@H]1NC[C@@H]2CC[C@@H](Cc3nn[nH]n3)[C@@H]21 (relative stereo) [Compound 38, (1SR,2SR,5RS,8SR)-3-Aza-8-((1(2)H-tetrazol-5-yl)methyl)bicyclo[3.3.0]octane-2-carboxylic Acid]
- IC50 (NMDA receptor [1]): 47.3 ± 7.62 µM
- IC50 (NMDA receptor [2]; 0.25 h): > 100 µM
- IC50 (NMDA receptor [3]): 3.13 ± 0.58 µM

Compound: O=C(O)[C@H]1NC[C@@H]2CCC(OCc3nn[nH]n3)[C@@H]21 (stereo partly drawn) [Compound 27, (1SR,2SR,5RS,8SR)-3-Aza-8-((1(2)H-tetrazol-5-yl)methoxy)bicyclo[3.3.0]octane-2-carboxylic Acid and (1SR,2SR,5RS,8RS)-3-Aza-8-((1(2)H-tetrazol-5-yl)methoxy)bicyclo[3.3.0]octane-2-carboxylic Acid]
- IC50 (NMDA receptor [1]): > 100 µM
- IC50 (NMDA receptor [3]): 5.66 ± 0.15 µM

Compound: O=C(O)[C@H]1C[C@@H](Cc2nn[nH]n2)CCN1 (relative stereo) [LY233053]
- protection in CNS ischemia model (CNS ischemia): provided protection

Compound: O=C(O)C1NCC2CCC(CSc3nn[nH]n3)C21 (stereo not drawn) [Compound 32, (1SR,2SR,5RS,8SR)-3-Aza-8-((1(2)H-tetrazole-5-thio)methyl)bicyclo[3.3.0]octane-2-carboxylic Acid]
- IC50 (NMDA receptor [1]): 27.8 ± 12.2 µM
- IC50 (NMDA receptor [2]; 0.25 h): 59.7 ± 10 µM
- IC50 (NMDA receptor [3]): 1.31 ± 0.48 µM

Compound: O=C(O)[C@@H]1C[C@H](CP(=O)(O)O)CCN1 [CGS 19755]
- analgesia in warm water tail withdrawal procedure [4]: analgesic
- protection in focal cerebral ischemia model (focal cerebral ischemia [5]): provided protection

Compound: O=C(O)[C@H]1NC[C@@H]2CC[C@H](Cc3nn[nH]n3)[C@@H]21 (relative stereo) [Compound 33, (1SR,2SR,5RS,8RS)-3-Aza-8-((1(2)H-tetrazol-5-yl)methyl)bicyclo[3.3.0]octane-2-carboxylic Acid]
- IC50 (NMDA receptor [1]): 36.6 ± 7 µM
- IC50 (NMDA receptor [2]; 0.25 h): 28.6 ± 5.6 µM
- NMDA receptor antagonist activity (NMDA receptor [2]): NMDA receptor antagonists
- IC50 (NMDA receptor [3]): 0.67 µM and < 1 µM

Compound: O=C(O)[C@H]1NC[C@@H]2CCC(CCc3nn[nH]n3)[C@@H]21 (stereo partly drawn) [Compound 21, (1SR,2SR,5RS,8SR)-3-Aza-8-(2-(1 (2)H-tetrazol-5-yl)ethyl)bicyclo[3.3.0]octane-2-carboxylic Acid and (1SR,2SR,5RS,8RS)-3-Aza-8-(2-(1(2)H-tetrazol-5-yl)ethyl)bicyclo[3.3.0]octane-2-carboxylic Acid]
- IC50 (NMDA receptor [1]): 37.7 ± 9.3 µM
- IC50 (NMDA receptor [2]; 0.25 h): > 100 µM
- IC50 (NMDA receptor [3]): 4.5 ± 0.98 µM

Compound: O=C(O)CCC1CC[C@H]2CN[C@H](C(=O)O)[C@@H]12 (stereo partly drawn) [Compound 20, (1SR,2SR,5RS,8SR)-3-Aza-8-(2-carboxyethyl)bicyclo[3.3.0]octane-2-carboxylic Acid and (1SR,2SR,5RS,8RS)-3-Aza-8-(2-carboxyethyl)bicyclo[3.3.0]octane-2-carboxylic Acid]
- IC50 (NMDA receptor [1]): 47.3 ± 21 µM
- IC50 (NMDA receptor [2]; 0.25 h): > 100 µM
- IC50 (NMDA receptor [3]): 1.44 ± 0.04 µM

Compound: O=C(O)[C@H]1NC[C@@H]2CCC(CCOCc3nn[nH]n3)[C@@H]21 (stereo partly drawn) [Compound 23, (1SR,2SR, 5RS,8SR)-3-Aza-8-(2-(1(2)H-tetrazol-5-ylmethoxy)ethyl)bicyclo[3.3.0]octane-2-carboxylic Acid and (1SR,2SR,5RS,8RS)-3-Aza-8-(2-(1(2)H-tetrazol-5-ylmethoxy)ethyl)bicyclo[3.3.0]octane-2-carboxylic Acid]
- IC50 (NMDA receptor [1]): > 100 µM
- IC50 (NMDA receptor [2]; NMDA 40 μM, 15 min exposure to compound, rat cortical wedges, read-out: Antagonism of Cortical Wedge Depolarization IC50): > 100 µM
- IC50 (NMDA receptor [3]): > 100 µM

Compound: O=C(O)[C@H]1CN(C/C=C/P(=O)(O)O)CCN1 [D-(-)CPP-ene]
- protection in focal cerebral ischemia model (focal cerebral ischemia [6]): provided protection

Compound: C[C@]12N[C@H](Cc3ccccc31)c1ccccc12 [dizocilpine]
- protection in focal cerebral ischemia model (focal cerebral ischemia [5]): provided protection
- protection in focal cerebral ischemia model (focal cerebral ischemia [6]): provided protection
